According to paper PMC5218480 (PLoS ONE, 2017):

Tested on: MV-4-11 cells
Assay: Gene expression microarray analysis (Affymetrix PrimeView) and GSEA
Assay type: cell-based, human
Set-up: RFU PODN (11730768_x_at) / Fold change /veh PODN (11730768_x_at) / RFU LINC00158 (11744669_a_at) / Fold change /veh LINC00158 (11744669_a_at) / RFU DUSP10 (11751237_a_at) / Fold change /veh DUSP10 (11751237_a_at) / RFU ID3 (11757404_x_at) / Fold change /veh ID3 (11757404_x_at) / RFU PLEKHG5 (11737974_s_at) / Fold change /veh PLEKHG5 (11737974_s_at) / RFU LRRC4B (11730491_at) / Fold change /veh LRRC4B (11730491_at) / RFU GIMAP4 (11747438_a_at) / Fold change /veh GIMAP4 (11747438_a_at) / RFU KRT8 (11758183_x_at) / Fold change /veh KRT8 (11758183_x_at) / RFU CNN1 (11734310_a_at) / Fold change /veh CNN1 (11734310_a_at) / RFU VPS37D (11726825_at) / Fold change /veh VPS37D (11726825_at) / RFU C10orf10 (11716522_x_at) / Fold change /veh C10orf10 (11716522_x_at) / RFU KIR2DL2 /// KIR2DL4 /// KIR2DL5A /// KIR2DL5B /// KIR2DS1 /// KIR2DS2 /// KIR2DS3 /// KIR2DS4 /// KIR3DL3 /// KIR3DL3 /// KIR3DS1 (11738374_at) / Fold change /veh KIR2DL2 /// KIR2DL4 /// KIR2DL5A /// KIR2DL5B /// KIR2DS1 /// KIR2DS2 /// KIR2DS3 /// KIR2DS4 /// KIR3DL3 /// KIR3DL3 /// KIR3DS1 (11738374_at) / RFU C1QL1 (11718748_at) / Fold change /veh C1QL1 (11718748_at) / RFU TMPRSS4 (11747572_a_at) / Fold change /veh TMPRSS4 (11747572_a_at) / RFU HAMP (11756126_x_at) / Fold change /veh HAMP (11756126_x_at) / RFU RNFT2 (11725882_a_at) / Fold change /veh RNFT2 (11725882_a_at) / RFU NR4A2 (11747474_a_at) / Fold change /veh NR4A2 (11747474_a_at) / RFU ABCC12 (11746883_a_at) / Fold change /veh ABCC12 (11746883_a_at) / RFU TMEM136 (11760407_x_at) / Fold change /veh TMEM136 (11760407_x_at) / RFU CLDN22 /// WWC2 (11732394_at) / Fold change /veh CLDN22 /// WWC2 (11732394_at) / RFU HLA-DPB1 (11760878_x_at) / Fold change /veh HLA-DPB1 (11760878_x_at) / RFU SPINT1 (11716480_a_at) / Fold change /veh SPINT1 (11716480_a_at) / RFU GAP43 (11754022_s_at) / Fold change /veh GAP43 (11754022_s_at) / RFU A4GNT (11735810_at) / Fold change /veh A4GNT (11735810_at) / RFU PRB3 (11715151_x_at) / Fold change /veh PRB3 (11715151_x_at) / RFU TUBB4B (11761932_at) / Fold change /veh TUBB4B (11761932_at) / RFU CAPN14 (11732068_a_at) / Fold change /veh CAPN14 (11732068_a_at) / RFU TMCC2 (11721928_a_at) / Fold change /veh TMCC2 (11721928_a_at) / RFU IRGQ (11745062_a_at) / Fold change /veh IRGQ (11745062_a_at) / RFU FAM174B (11720279_a_at) / Fold change /veh FAM174B (11720279_a_at) / RFU TMPRSS4 (11748680_a_at) / Fold change /veh TMPRSS4 (11748680_a_at) / RFU FAM212B (11763350_a_at) / Fold change /veh FAM212B (11763350_a_at) / RFU PLEKHG5 (11743358_a_at) / Fold change /veh PLEKHG5 (11743358_a_at) / RFU ZSCAN30 (11745921_a_at) / Fold change /veh ZSCAN30 (11745921_a_at) / RFU CMKLR1 (11741424_a_at) / Fold change /veh CMKLR1 (11741424_a_at) / RFU LOC101060620 /// MAPK8IP1 (11723275_at) / Fold change /veh LOC101060620 /// MAPK8IP1 (11723275_at) / RFU SPTSSB (11747773_x_at) / Fold change /veh SPTSSB (11747773_x_at) / RFU PRSS12 (11739890_at) / Fold change /veh PRSS12 (11739890_at) / RFU BIN1 (11741810_x_at) / Fold change /veh BIN1 (11741810_x_at) / RFU WNT11 (11732464_a_at) / Fold change /veh WNT11 (11732464_a_at) / RFU C10orf10 (11716521_a_at) / Fold change /veh C10orf10 (11716521_a_at) / RFU C5orf56 (11738089_at) / Fold change /veh C5orf56 (11738089_at) / RFU CYB561 (11721691_x_at) / Fold change /veh CYB561 (11721691_x_at) / RFU ANKRD19P (11752326_a_at) / Fold change /veh ANKRD19P (11752326_a_at) / RFU OR2T12 /// OR2T33 /// OR2T8 (11738714_s_at) / Fold change /veh OR2T12 /// OR2T33 /// OR2T8 (11738714_s_at) / RFU VCAN (11748164_a_at) / Fold change /veh VCAN (11748164_a_at) / RFU JSRP1 (11732532_at) / Fold change /veh JSRP1 (11732532_at) / RFU KRTAP10-11 (11738290_x_at) / Fold change /veh KRTAP10-11 (11738290_x_at) / RFU MYO3A (11730013_a_at) / Fold change /veh MYO3A (11730013_a_at) / RFU EBF3 (11725865_a_at) / Fold change /veh EBF3 (11725865_a_at) / RFU CAMK2N1 (11719241_x_at) / Fold change /veh CAMK2N1 (11719241_x_at) / RFU C5orf56 (11738088_a_at) / Fold change /veh C5orf56 (11738088_a_at) / RFU OLFML3 (11715873_a_at) / Fold change /veh OLFML3 (11715873_a_at) / RFU LOC100653217 /// NTM (11731650_a_at) / Fold change /veh LOC100653217 /// NTM (11731650_a_at) / RFU MAPK11 (11762145_a_at) / Fold change /veh MAPK11 (11762145_a_at) / RFU FIZ1 (11724087_x_at) / Fold change /veh FIZ1 (11724087_x_at) / RFU OASL (11726364_x_at) / Fold change /veh OASL (11726364_x_at) / RFU SOX15 (11748057_x_at) / Fold change /veh SOX15 (11748057_x_at) / RFU CD79A (11719716_a_at) / Fold change /veh CD79A (11719716_a_at) / RFU HIST1H1D (11736915_at) / Fold change /veh HIST1H1D (11736915_at) / RFU CASKIN2 (11723855_a_at) / Fold change /veh CASKIN2 (11723855_a_at) / RFU LOC730098 (11760151_x_at) / Fold change /veh LOC730098 (11760151_x_at) / RFU OR4N2 (11742367_at) / Fold change /veh OR4N2 (11742367_at) / RFU PRRT2 (11749266_a_at) / Fold change /veh PRRT2 (11749266_a_at) / RFU SNX32 (11753110_a_at) / Fold change /veh SNX32 (11753110_a_at) / RFU CDHR5 (11726645_a_at) / Fold change /veh CDHR5 (11726645_a_at) / RFU RCAN1 (11760418_a_at) / Fold change /veh RCAN1 (11760418_a_at) / RFU FAM167A (11723789_a_at) / Fold change /veh FAM167A (11723789_a_at) / RFU FAM26E (11764081_at) / Fold change /veh FAM26E (11764081_at) / RFU ISYNA1 (11749810_s_at) / Fold change /veh ISYNA1 (11749810_s_at) / RFU ACY1 (11761880_at) / Fold change /veh ACY1 (11761880_at) / RFU 11764098_at / Fold change /veh 11764098_at / RFU SAMD14 (11745864_x_at) / Fold change /veh SAMD14 (11745864_x_at) / RFU NPB (11741838_a_at) / Fold change /veh NPB (11741838_a_at) / RFU TMPRSS6 (11731388_a_at) / Fold change /veh TMPRSS6 (11731388_a_at) / RFU KRTAP10-2 (11738614_at) / Fold change /veh KRTAP10-2 (11738614_at) / RFU ARHGAP8 /// PRR5-ARHGAP8 (11727945_x_at) / Fold change /veh ARHGAP8 /// PRR5-ARHGAP8 (11727945_x_at) / RFU KRTAP5-7 /// NADSYN1 (11734609_at) / Fold change /veh KRTAP5-7 /// NADSYN1 (11734609_at) / RFU RASL12 (11751679_a_at) / Fold change /veh RASL12 (11751679_a_at) / RFU CDKN2B (11736163_a_at) / Fold change /veh CDKN2B (11736163_a_at) / RFU PRF1 (11729649_at) / Fold change /veh PRF1 (11729649_at) / RFU, ZNF638 /// ZNF638-IT1 / Fold change vs veh, ZNF638 /// ZNF638-IT1 / RFU, PANK3 / Fold change vs veh, PANK3 / RFU, SH3YL1 / Fold change vs veh, SH3YL1 / RFU, ZEB2 / Fold change vs veh, ZEB2 / RFU, NRIP1 / Fold change vs veh, NRIP1 / RFU, PTTG1IP / Fold change vs veh, PTTG1IP / RFU, CAPN2 / Fold change vs veh, CAPN2 / RFU, MED14 / Fold change vs veh, MED14 / RFU, SNORA58 / Fold change vs veh, SNORA58 / RFU, C1orf63 / Fold change vs veh, C1orf63 / RFU, LRRFIP1 / Fold change vs veh, LRRFIP1 / RFU, NDUFAF7 / Fold change vs veh, NDUFAF7 / RFU, SLC12A2 / Fold change vs veh, SLC12A2 / RFU, IBTK / Fold change vs veh, IBTK / RFU, ESF1 / Fold change vs veh, ESF1 / Fold change vs veh, TMEM50B / RFU, TAOK1 / Fold change vs veh, TAOK1 / RFU, ACBD3 / Fold change vs veh, ACBD3 / RFU, TMA16 / Fold change vs veh, TMA16 / RFU, RWDD3 / Fold change vs veh, RWDD3 / RFU, BCAT1 / Fold change vs veh, BCAT1 / RFU, EDEM3 / Fold change vs veh, EDEM3 / RFU, TMEM33 / Fold change vs veh, TMEM33 / RFU, WDR75 / Fold change vs veh, WDR75 / RFU, AHCTF1 / Fold change vs veh, AHCTF1 / RFU, TFRC / Fold change vs veh, TFRC / RFU, ZDHHC17 / Fold change vs veh, ZDHHC17 / RFU, NOM1 / Fold change vs veh, NOM1 / RFU, ARL8B / Fold change vs veh, ARL8B / RFU, ZBTB11 / Fold change vs veh, ZBTB11 / RFU, TAMM41 / Fold change vs veh, TAMM41 / RFU, KIAA1704 /// LOC100996395 / Fold change vs veh, KIAA1704 /// LOC100996395 / RFU, ING1 / Fold change vs veh, ING1 / RFU, TRMT61B / Fold change vs veh, TRMT61B / RFU, FUBP3 / Fold change vs veh, FUBP3 / RFU, TP53 / Fold change vs veh, TP53 / RFU, TNKS2 / Fold change vs veh, TNKS2 / RFU, ZFP14 / Fold change vs veh, ZFP14 / RFU, ACTR2 / Fold change vs veh, ACTR2 / RFU, PPP3R1 / Fold change vs veh, PPP3R1 / RFU, PIK3R1 / Fold change vs veh, PIK3R1 / RFU, HNRNPA1 / Fold change vs veh, HNRNPA1 / RFU, RNF170 / Fold change vs veh, RNF170 / RFU, ZNF28 / Fold change vs veh, ZNF28 / RFU, RNGTT / Fold change vs veh, RNGTT / RFU, OGT / Fold change vs veh, OGT / RFU, BRD1 / Fold change vs veh, BRD1 / RFU, MARS / Fold change vs veh, MARS / RFU, ZNF655 / Fold change vs veh, ZNF655 / RFU, FAHD1 / Fold change vs veh, FAHD1 / RFU, BDP1 / Fold change vs veh, BDP1 / RFU, LRRCC1 / Fold change vs veh, LRRCC1 / RFU, ARID1A / Fold change vs veh, ARID1A / RFU, ZNF146 / Fold change vs veh, ZNF146 / RFU, ZNF330 / Fold change vs veh, ZNF330 / RFU, GPN3 / Fold change vs veh, GPN3 / RFU, C9orf123 / Fold change vs veh, C9orf123 / RFU, N4BP2L2 / Fold change vs veh, N4BP2L2 / RFU, ARFIP1 / Fold change vs veh, ARFIP1 / RFU, FAM179B / Fold change vs veh, FAM179B / RFU, BCL10 / Fold change vs veh, BCL10 / RFU, UHRF1BP1L / Fold change vs veh, UHRF1BP1L / RFU, BET1 / Fold change vs veh, BET1 / RFU, CNOT2 / Fold change vs veh, CNOT2 / RFU, ZNF268 / Fold change vs veh, ZNF268 / Fold change vs veh, ZNF507 / RFU, DGCR2 / Fold change vs veh, DGCR2 / RFU, WDSUB1 / Fold change vs veh, WDSUB1 / Fold change vs veh, HSP90B1 /// MIR3652 / RFU, ADSS / Fold change vs veh, ADSS / RFU, GK / Fold change vs veh, GK / RFU, ZNF148 / Fold change vs veh, ZNF148 / RFU, TAF9 / Fold change vs veh, TAF9 / RFU, SLC1A5 / Fold change vs veh, SLC1A5 / RFU, SLMO2 / Fold change vs veh, SLMO2 / RFU, ABCC4 / Fold change vs veh, ABCC4 / RFU, LOC101060439 /// RAP1B / Fold change vs veh, LOC101060439 /// RAP1B / RFU, RFX7 / Fold change vs veh, RFX7 / RFU, GTPBP10 / Fold change vs veh, GTPBP10 / RFU, CNEP1R1 / Fold change vs veh, CNEP1R1 / RFU, BIVM-ERCC5 /// ERCC5 / Fold change vs veh, BIVM-ERCC5 /// ERCC5 / RFU, ILF3 / Fold change vs veh, ILF3 / RFU 11762660_at / Fold change /veh 11762660_at / RFU VCAN (11757783_s_at) / Fold change /veh VCAN (11757783_s_at) / RFU DDX43 (11728927_at) / Fold change /veh DDX43 (11728927_at) / RFU KRT8 (11758188_x_at) / Fold change /veh KRT8 (11758188_x_at) / RFU NKD1 (11759106_at) / Fold change /veh NKD1 (11759106_at) / RFU SRD5A1 (11742802_a_at) / Fold change /veh SRD5A1 (11742802_a_at) / RFU TPSAB1 /// TPSB2 (11721975_s_at) / Fold change /veh TPSAB1 /// TPSB2 (11721975_s_at) / RFU GSTM3 (11746129_a_at) / Fold change /veh GSTM3 (11746129_a_at) / RFU IL23R (11737362_x_at) / Fold change /veh IL23R (11737362_x_at) / RFU TMEM51 (11727254_a_at) / Fold change /veh TMEM51 (11727254_a_at) / RFU PIWIL2 (11732686_x_at) / Fold change /veh PIWIL2 (11732686_x_at) / RFU ORM1 (11744905_x_at) / Fold change /veh ORM1 (11744905_x_at) / RFU CCDC152 (11743942_at) / Fold change /veh CCDC152 (11743942_at) / RFU ECM1 (11717891_a_at) / Fold change /veh ECM1 (11717891_a_at) / RFU IL23R (11748794_a_at) / Fold change /veh IL23R (11748794_a_at) / RFU TNFAIP8L3 (11732012_x_at) / Fold change /veh TNFAIP8L3 (11732012_x_at) / RFU MBOAT4 (11741988_at) / Fold change /veh MBOAT4 (11741988_at) / RFU 11764193_at / Fold change /veh 11764193_at / RFU TMEM53 (11763286_at) / Fold change /veh TMEM53 (11763286_at) / RFU MAGEB2 (11727129_at) / Fold change /veh MAGEB2 (11727129_at) / RFU TMEM200A (11744735_a_at) / Fold change /veh TMEM200A (11744735_a_at) / RFU CCDC152 (11751479_a_at) / Fold change /veh CCDC152 (11751479_a_at) / RFU FAM211A (11726209_a_at) / Fold change /veh FAM211A (11726209_a_at) / RFU RGS16 (11746705_a_at) / Fold change /veh RGS16 (11746705_a_at) / RFU VCAN (11755009_s_at) / Fold change /veh VCAN (11755009_s_at) / RFU RHOB (11743442_s_at) / Fold change /veh RHOB (11743442_s_at) / RFU RGS16 (11720943_a_at) / Fold change /veh RGS16 (11720943_a_at) / RFU RGS16 (11720944_at) / Fold change /veh RGS16 (11720944_at) / RFU, VPS4B / Fold change vs veh, VPS4B / RFU, CREB1 / Fold change vs veh, CREB1 / RFU, DNAJC13 / Fold change vs veh, DNAJC13 / RFU, GNAQ / Fold change vs veh, GNAQ / RFU, CDK5R1 / Fold change vs veh, CDK5R1 / RFU, ZRANB3 / Fold change vs veh, ZRANB3 / RFU, CUL4A / Fold change vs veh, CUL4A / RFU, CCNY / Fold change vs veh, CCNY / RFU, UFL1 / Fold change vs veh, UFL1 / RFU, COG3 / Fold change vs veh, COG3 / RFU, DIAPH2 / Fold change vs veh, DIAPH2 / RFU, SKA2 / Fold change vs veh, SKA2 / RFU, AFF3 / Fold change vs veh, AFF3 / RFU, LMF1 / Fold change vs veh, LMF1 / RFU, IPO11 / Fold change vs veh, IPO11 / RFU, DFFB / Fold change vs veh, DFFB / RFU, FOXP1 / Fold change vs veh, FOXP1 / RFU, CARD8 / Fold change vs veh, CARD8 / RFU, STRN3 / Fold change vs veh, STRN3 / RFU, ADK / Fold change vs veh, ADK / RFU, RASSF2 / Fold change vs veh, RASSF2 / RFU, WIPF1 / Fold change vs veh, WIPF1 / RFU, LARP1B / Fold change vs veh, LARP1B / RFU, RASA1 / Fold change vs veh, RASA1 / RFU, RB1 / Fold change vs veh, RB1 / RFU, PPFIA1 / Fold change vs veh, PPFIA1 / RFU, MAT2A / Fold change vs veh, MAT2A / RFU, CCT5 / Fold change vs veh, CCT5 / RFU, WDR92 / Fold change vs veh, WDR92 / RFU, CUX1 / Fold change vs veh, CUX1 / RFU, TTC7A / Fold change vs veh, TTC7A / RFU, TMEM135 / Fold change vs veh, TMEM135 / RFU, DEPTOR / Fold change vs veh, DEPTOR / RFU, CPM / Fold change vs veh, CPM / RFU, DNAJB6 / Fold change vs veh, DNAJB6 / RFU, CACNA2D3 / Fold change vs veh, CACNA2D3 / RFU, DTX4 / Fold change vs veh, DTX4 / RFU, TFCP2 / Fold change vs veh, TFCP2 / RFU, GMCL1 /// GMCL1P1 / Fold change vs veh, GMCL1 /// GMCL1P1 / RFU, AEBP2 / Fold change vs veh, AEBP2 / RFU, SNHG1 /// SNORD22 /// SNORD25 /// SNORD26 /// SNORD27 /// SNORD28 /// SNORD29 /// SNORD31 / Fold change vs veh, SNHG1 /// SNORD22 /// SNORD25 /// SNORD26 /// SNORD27 /// SNORD28 /// SNORD29 /// SNORD31 / Fold change (Aza/veh), C12orf56 (ProbeSet 11735607_a_at) / Fold change (ACY-1035/veh), C12orf56 (ProbeSet 11735607_a_at) / Fold change (Aza/veh), FGFR1OP (ProbeSet 11751329_s_at) / Fold change (ACY-1035/veh), FGFR1OP (ProbeSet 11751329_s_at) / Fold change (Aza/veh), VPS36 (ProbeSet 11739960_a_at) / Fold change (ACY-1035/veh), VPS36 (ProbeSet 11739960_a_at) / RFU SYPL1 (11715823_x_at) / Fold change /veh SYPL1 (11715823_x_at) / RFU IGFBP7 (11715501_s_at) / Fold change /veh IGFBP7 (11715501_s_at) / RFU REEP3 (11722064_at) / Fold change /veh REEP3 (11722064_at) / RFU IGLL1 (11728026_x_at) / Fold change /veh IGLL1 (11728026_x_at): dose or concentration left out as unconfirmed
Conditions: ProbeSet 11726703_a_at; LIST B

`Nc1ccc(-c2cccs2)cc1NC(=O)c1ccc2c(c1)cc(C1CC1)n2CCN1CCOCC1` [ACY-1035] was tested, and the “Fold change vs veh, BCL10” value was 0.84.
